Patent US6962971B2, “Chemokines and methods for inducing the differentiation of fibroblasts to myofibroblasts” (The Regents of the University of California, priority 2001, dated 2005)
Entries after “also recorded” stand apart in the source; their conditions may differ. Each block holds one substance with its values, some of them ahead of it.

How the values were obtained:
[1] = system: primary chicken embryonic connective tissue fibroblasts; test: Fibroblast growth assay; type: cell-based; conditions: for effect on fibroblast growth / cell numbers: 3 days treatment, 2% donor calf serum
Protocol: Primary chicken embryonic connective tissue fibroblasts (CEFs) were cultured as previously described in Martins-Green and Feugate (1998). Briefly, these fibroblasts were isolated from 10-day-old chicken embryo body walls, plated at 6×10^6 cells/100 mm plate and cultured for 4 days in 199 medium with 5% donor calf serum, 1% chick serum and 0.3% tryptose phosphate broth. These cultures were passaged once (secondary cultures); the cells were plated at 0.4×10^6 cells/35 mm plate in 199/tryptose phosphate broth and 2% donor calf serum.
Secondary fibroblasts were plated at 0.4×10^6 cells/35 mm plate and cCAF was added to experimental plates. For each experiment, plating efficiency was determined by trypsinizing plates four hours after plating. Cells were counted with a Coulter particle counter to confirm even plating of cells. The media was replaced approximately every 16 hr with 1 ml of […] 199 medium containing 0.3% tryptose phosphate broth and 2% donor calf serum, and 100-1000 ng cCAF [9-90 nM] or C- or N-peptide [64-640 nM] was added to the experimental plates, whereas, control plates contained media only. On day 3, plates were trypsinized to remove all cells and cells were counted using a Coulter counter. To test for specificity, anti-cCAF rabbit serum was pre-incubated with cCAF (3 μl serum/750 ng cCAF [68 nM] or N-peptide [480 nM]) for 1 hr at room temperature before being added to cells.

[2] = system: chicken CXC receptor 1 (CXCR1); test: Chicken cCXCR1-mediated calcium release; type: cell-based; conditions: NIH #373 cells overexpressing chicken CXCR1
Protocol: NIH #373 cells overexpressing the chicken CXC receptor 1 (CXCR1) were exposed to the full-length cCAF molecule, the 15-amino N-terminal peptide of cCAF, or the 28-amino acid C-terminal peptide and calcium release was then measured.

[3] = system: chicken chorioallantoic membrane (CAM); conditions: in vivo; cited from earlier work
α-SMA [4] = test: Immunoblotting for α-SMA in fibroblast extracts; type: cell-based, chicken
Protocol: Plates of fibroblasts were treated as described previously, with 750 ng/ml cCAF or 2.5 ng/ml TGFβ. To block TGFβ, or cCAF activity, anti-cCAF (3 μl) or anti-TGFβ (1 μl) antibody was pre-incubated in 1 ml media for 1 hr at room temperature before being added to cells. After 4 days of treatment, protein extracts were prepared in 1 ml 150 mM RIPA buffer containing protease inhibitors. Protein concentrations were determined using the DC protein assay kit and samples were adjusted to contain equal amounts of protein. SDS-PAGE was performed on 7.5% separating Doucet gels (Doucet and Trifaro, 1988). Protein transfer to nitrocellulose was performed using a wet-transfer apparatus (Bio-Rad) at 100V for 45 min. The membranes were blocked for 1 hr in 5% milk in TTBS and then incubated overnight at 4° C. in mouse anti-α-SMA, to a final IgG concentration of 5 μg/ml, in 1% milk in TTBS. The membranes were washed 3 times for 20 min each with TTBS, incubated in anti-mouse HRP at 1:10,000 in 1% milk for 1hr and washed as above, and the bands visualized using the ECL.

α-SMA [5] = test: Immunostaining for α-SMA in fibroblast cultures and collagen gel sections; type: cell-based, chicken; conditions: versus control gels
Protocol: Plates of fibroblasts were treated with cCAF as described previously. After 4 days, the cells were rinsed with PBS, fixed in 4% paraformaldehyde, permeabilized with 0.15% Triton X-100 and incubated with PBS containing 0.1M glycine for 10 min. Cells were blocked for 30 min with 10% goat serum in PBS, incubated with mouse anti-α-SMA, to a final IgG concentration of 20 μg/ml, in 1% BSA/PBS for 1hr at room temperature (RT), and washed three times with 0.1% BSA/PBS for 10 min each. The cells were then incubated in goat anti-mouse FITC or sheep anti-mouse Texas Red (1:100) in 1% BSA/PBS for 1 hr at RT, washed three times for 10 min with 0.1% BSA in PBS and mounted with Vectashield. Collagen gels were rinsed with PBS, fixed in 4% paraformaldehyde for 2 hr, washed three times 30 min each with PBS, and incubated for an additional 30 min in PBS containing 0.1M glycine. This treatment was followed by incubation at 4° C. overnight in 15% sucrose and then incubated under the same conditions in 30% sucrose. After a brief rinse with PBS, the gels were frozen in OCT, sections prepared and collected on gelatin-coated slides, rinsed with PBS, fixed in 4% paraformaldehyde for 10 min, and then incubated again in PBS containing 0.1M glycine for 10 min. This was followed by blocking for 30 min with 10% goat serum in PBS, incubation in primary and secondary antibody as described above, and mounting with Vectashield.

[6] = system: fibroblast-seeded collagen gels; test: Collagen gel contraction by fibroblasts; type: cell-based, chicken
Protocol: 1.5 ml Vitrogen 100 collagen gels were made in 35 mm plates. Secondary fibroblasts were plated at 0.4×10^6 cells/35 mm plate on top of the gels. After the cells had adhered to the collagen, cCAF was added to experimental plates. The medium was replaced approximately every 16 hr with 1 ml of 199 supplemented with 0.3% tryptose phosphate broth and 2% donor calf serum, and 750 ng cCAF [68 nM] or N-peptide [480 nM] was added to the experimental plates. Control plates contained media only. After 4 days, gels were released. Treatment was continued for 2 more days and gels were photographed every 12 hours. The photographs were used for evaluation of gel contraction by determining the area of the gel using NIH image analysis.

[7] = system: Full-thickness excision wounds on the underside of the wings of 2-week-old chicks; test: Wounding experiment: closure of excision wounds; type: in vivo, chicken; conditions: 1 μg every other day, topical; versus vehicle (H2O) on contralateral wing
Protocol: Full-thickness excision wounds (approximately 0.5×0.5 cm) were made, using a scalpel blade, on the underside of the wings of 2-week-old chicks. The left wing was treated with vehicle alone (water), and the right wing with […] cCAF [90 nM]. The wounds were photographed immediately after wounding and then covered with Biocclusive bandage. 50 μl vehicle (water) or cCAF was deposited through the bandage onto the wound using a 30-gauge needle. This procedure was repeated the next day and every other day thereafter. On days 3, 5 and 7, the bandages were removed and the wounds were photographed before replacing the bandages and applying the treatment again.

fibroblasts = test: Induction of differentiation of fibroblasts to myofibroblasts by IL-8 forms; type: cell-based; conditions: IL-8-77 versus IL-8-72

calcium release ([2]; 400 ng): failed to induce calcium release
Substance: C-peptide: 28-amino acid peptide extending from residues 59-86 of cCAF (SEQ ID NO:2) (CLDPTAPWVQLIVKALMAKAQLNSDAPL; Gallusgallus) [reference compound]
effect on fibroblast growth / cell numbers [1]: did not suppress the growth of connective tissue fibroblasts
effect on fibroblast growth / cell numbers ([1]; listed as C-terminal peptide): did not cause a decrease in cell numbers
calcium release ([2]; 800 ng): release of calcium that was similar in magnitude, but differed in time course from the N-peptide-induced release
angiogenic activity of the peptide by itself [3]: angiogenic in vivo

Substance: TGFβ: Transforming Growth Factorβ-1, known stimulator of myofibroblast differentiation [reference compound]
α-SMA expression after TGFβ treatment (α-SMA [4]; 2.5 ng/ml): stimulation of α-SMA

calcium release ([2]; 400 ng): similar, albeit somewhat slower, release
Substance: LSQGRTLVKMGNELR (Gallusgallus) [N-peptide, 15-amino acid N-terminal peptide of cCAF]
effect on fibroblast growth / cell numbers [1]: suppresses the growth of fibroblasts to a level similar to that caused by the whole cCAF molecule; also recorded: decrease in growth similar to that induced by cCAF
dose- and time-dependent pattern of suppression of growth ([1]; compared with whole cCAF, not shown): same as that of the whole cCAF molecule, albeit at a higher molar concentration
α-SMA immunolabeling of sections of fibroblast-seeded collagen gels (α-SMA [5]): more cells with fibers staining for α-SMA than control gels
α-SMA levels by immunoblot (α-SMA [4]; 750 ng/ml, versus untreated or C-peptide treated cells): much higher levels of α-SMA; also recorded: increased levels of α-SMA
contraction of collagen gels after release ([6]; 750 ng/ml, 4-5 days treatment before release, versus untreated cells): much greater contraction; also recorded: stimulated fibroblasts to contract collagen gels more efficiently than untreated cells; also recorded: contracted the gels more tightly than did untreated cells
contraction of fibroblast clusters on collagen ([6]; versus control cells): form clusters that are much tighter and generally pull away from the collagen; also recorded: more contracted than clusters in control cells
wound closure at day 3 (days 0-3) [7]: accelerated wound closure during days 0-3, albeit less strongly than with the whole cCAF molecule

Substance: IL-8-77: 77-residue form of human interleukin-8, SEQ ID NO:4
potency at inducing differentiation of fibroblasts to myofibroblasts, relative to the other IL-8 form (fibroblasts): more potent at inducing differentiation of fibroblasts to myofibroblasts
